The NIST ThermoML archive (doi:10.1021/je5003779)

Key:
[1] = refractive index (other wavelength) (dimensionless); settings: 101.3 kPa, Liquid, Wavelength=632.8 nm, Standard Abbe refractometry
[2] = refractive index (other wavelength) (dimensionless); xn = mol fraction of the nth substance listed; settings: 296.27 K, 101 kPa, Liquid, Wavelength=632.8 nm, Standard Abbe refractometry
[3] = heat capacity at constant pressure per volume; xn = mol fraction of the nth substance listed; settings: 101 kPa, Liquid, Differential Scanning Calorimeter, x1 = 0.133

CCn1cc[n+](C)c1.O=S(=O)([N-]S(=O)(=O)C(F)(F)F)C(F)(F)F
[1]
Settings | refractive index
285.03 K | 1.4252
287.17 K | 1.4246
288.97 K | 1.4242
290.28 K | 1.4238
291.11 K | 1.4236
292.19 K | 1.4233
293.16 K | 1.423
294.21 K | 1.4227
295.18 K | 1.4225
297.26 K | 1.4219

CCCO [propan-1-ol]
[1]
Settings | refractive index
284.73 K | 1.387
286.91 K | 1.3861
288.21 K | 1.3856
289.24 K | 1.3851
290.26 K | 1.3847
291.26 K | 1.3843
292.59 K | 1.3837
293.69 K | 1.3833
296.27 K | 1.3823

CCCO [propan-1-ol] + CCn1cc[n+](C)c1.O=S(=O)([N-]S(=O)(=O)C(F)(F)F)C(F)(F)F
Settings | refractive index
[2], x2 = 0 | 1.3823

CCn1cc[n+](C)c1.O=S(=O)([N-]S(=O)(=O)C(F)(F)F)C(F)(F)F + CCCO
Settings | heat capacity [J/K/m3] | refractive index
[2], x1 = 0.021 | – | 1.3854
[2], x1 = 0.056 | – | 1.3896
[2], x1 = 0.097 | – | 1.3935
[2], x1 = 0.142 | – | 1.3971
[2], x1 = 0.149 | – | 1.3977
[2], x1 = 0.192 | – | 1.4006
[2], x1 = 0.243 | – | 1.4036
[2], x1 = 0.306 | – | 1.4064
[2], x1 = 0.397 | – | 1.4099
[2], x1 = 0.502 | – | 1.4131
[2], x1 = 0.699 | – | 1.4174
[2], x1 = 0.855 | – | 1.4199
[2], x1 = 1 | – | 1.4222
[3], 295 K | 2448000 | –
[3], 296 K | 2164000 | –
[3], 297 K | 2118000 | –
[3], 298 K | 2122000 | –
[3], 299 K | 2105000 | –
[3], 300 K | 2103000 | –
[3], 301 K | 2101000 | –
[3], 302 K | 2082000 | –
[3], 303 K | 2087000 | –
[3], 304.01 K | 2092000 | –
[3], 305 K | 2090000 | –
[3], 306 K | 2090000 | –
[3], 307 K | 2094000 | –
[3], 308 K | 2095000 | –
[3], 309 K | 2098000 | –
[3], 310 K | 2097000 | –
[3], 311 K | 2098000 | –
[3], 312 K | 2102000 | –
[3], 313 K | 2103000 | –
[3], 314 K | 2103000 | –
[3], 315 K | 2108000 | –
[3], 316 K | 2108000 | –
[3], 317 K | 2111000 | –
[3], 318 K | 2113000 | –
[3], 319 K | 2114000 | –
[3], 320 K | 2117000 | –
[3], 321 K | 2117000 | –
[3], 322 K | 2121000 | –
[3], 323 K | 2124000 | –
[3], 324 K | 2125000 | –
[3], 325 K | 2124000 | –
[3], 326 K | 2129000 | –
[3], 327 K | 2131000 | –
[3], 328 K | 2133000 | –
[3], 329.01 K | 2135000 | –
[3], 330 K | 2134000 | –
[3], 331 K | 2139000 | –
